Where two headings read alike, the source gives them in different places. Values belong to the compound of their own block, whether it stands above or below them.
Target: T1, Androgen Receptor (Homo sapiens, UniProt P10275)
T1 construct: endogenous in cells; host or cells: VCaP cells
T1 sequence (P10275 1-920): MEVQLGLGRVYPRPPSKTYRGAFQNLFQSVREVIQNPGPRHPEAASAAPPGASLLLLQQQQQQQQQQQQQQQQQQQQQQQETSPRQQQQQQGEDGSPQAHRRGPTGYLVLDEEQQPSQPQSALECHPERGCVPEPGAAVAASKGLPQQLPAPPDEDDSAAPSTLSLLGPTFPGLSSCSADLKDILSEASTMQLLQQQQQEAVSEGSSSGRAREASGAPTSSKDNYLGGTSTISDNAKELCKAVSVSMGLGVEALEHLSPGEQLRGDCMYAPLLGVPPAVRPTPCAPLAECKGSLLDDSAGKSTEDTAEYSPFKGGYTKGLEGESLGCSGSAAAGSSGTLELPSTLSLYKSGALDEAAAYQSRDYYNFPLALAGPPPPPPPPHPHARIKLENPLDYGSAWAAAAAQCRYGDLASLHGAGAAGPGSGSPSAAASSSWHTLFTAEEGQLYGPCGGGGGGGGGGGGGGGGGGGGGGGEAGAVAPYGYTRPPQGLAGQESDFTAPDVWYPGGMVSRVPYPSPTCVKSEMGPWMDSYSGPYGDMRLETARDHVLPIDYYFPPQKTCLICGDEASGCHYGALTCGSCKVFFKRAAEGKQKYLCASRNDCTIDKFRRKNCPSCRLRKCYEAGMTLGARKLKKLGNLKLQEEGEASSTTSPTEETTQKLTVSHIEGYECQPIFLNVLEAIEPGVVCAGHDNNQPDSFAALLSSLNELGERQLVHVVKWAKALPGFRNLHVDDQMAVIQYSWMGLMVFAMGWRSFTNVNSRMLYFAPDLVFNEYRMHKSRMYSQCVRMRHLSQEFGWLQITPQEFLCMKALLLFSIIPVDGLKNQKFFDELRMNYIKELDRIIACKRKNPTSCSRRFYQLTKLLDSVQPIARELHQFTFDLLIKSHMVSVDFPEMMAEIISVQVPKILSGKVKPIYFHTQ
Test: Androgen Receptor ELISA assay (PathScan AR ELISA) in VCaP cells: AR degradation, Dmax and DC50
Assay type: cell-based
In short: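 After 24 h exposure of VCaP cells (charcoal-stripped serum, 0.1 nM R1881 agonist, 0.1% DMSO) to seven half-log compound concentrations, residual AR in lysates was measured by PathScan ELISA (TMB absorbance, 450 nm). Cells were plated at 30,000/well and grown at least 3 days beforehand.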

[1] = read-out: VCaP DC50; VCaP cells; Table 36
[2] = VCaP cells; Table 35; read-out: VCaP DC50
[3] = VCaP, VCaP cells; Table 35; read-out: VCaP Dmax (%)
[4] = read-out: VCaP DC50; concentration that caused 50% Androgen Receptor degradation, VCaP cells (Table 32)
[5] = VCaP cells; Table 36; read-out: VCaP DC50
[6] = VCaP, VCaP cells; Table 36; read-out: VCaP Dmax (%)

SMILES: Cc1ncsc1-c1ccc([C@H](C)NC(=O)[C@@H]2C[C@@H](O)CN2C(=O)C(C(C)C)n2cnc(CCCCOCCCCCOc3ccc(N4C(=S)N(c5ccc(C#N)c(C(F)(F)F)c5)C(=O)C4(C)C)cc3)c2)cc1 (stereo partly drawn) [Example 650, 1-(2-(4-(4-((5-(4-(3-(4-cyano-3-(trifluoromethyl)phenyl)-5,5-dimethyl-4-oxo-2-thioxoimidazolidin-1-yl)phenoxy)pentyl)oxy)butyl)-1H-imidazol-1-yl)-3-methylbutanoyl)-4-hydroxy-N-(1-(4-(4-methylthiazol-5-yl)phenyl)ethyl)pyrroli-dine-2-carboxamide]
Dmax (VCaP, read-out: VCaP Dmax (%)): < 25%
DC50 [1]: > 501 nM

DC50 [2]: < 50 nM
Dmax [3]: < 25%
SMILES: CC(C)(C)[C@H](NC(=O)COCCCCCNc1ccc(C(=O)N[C@H]2C(C)(C)[C@H](Oc3ccc(C#N)c(Cl)c3)C2(C)C)cc1)C(=O)N1C[C@H](O)C[C@H]1C(=O)NCc1ccc(-n2ccccc2=O)cc1 [Example 529]

SMILES: CC(C)(C)[C@H](NC(=O)COCCCCOc1ccc(-c2ccc(N3C(=S)N(c4ccc(C#N)c(C(F)(F)F)c4)C(=O)C3(C)C)cc2)cc1)C(=O)N1C[C@H](O)C[C@H]1C(=O)NCc1ccc(-c2cnco2)cc1 [Example 96, (2S,4R)-1-[(2S)-2-(2-{4-[4-(4-{3-[4-cyano-3-(trifluoromethyl)phenyl]-5,5-dimethyl-4-oxo-2-sulfanylideneimidazolidin-1-yl}phenyl)phenoxy]butoxy}acetamido)-3,3-dimethylbutanoyl]-4-hydroxy-N-{[4-(1,3-oxazol-5-yl)phenyl]methyl}pyrrolidine-2-carboxamide]
Dmax (VCaP, read-out: VCaP Dmax (%)): 51 to 70%
DC50 [4]: < 50 nM

SMILES: CC(C)(C)[C@H](NC(=O)COCCOCCCCOc1ccc(C(=O)N[C@H]2C(C)(C)[C@H](Oc3ccc(C#N)c(Cl)c3)C2(C)C)cc1)C(=O)N1C[C@H](O)C[C@H]1C(=O)NCc1ccc(-c2cncs2)cc1 [Example 162, (2S,4R)-1-[(2S)-3,3-dimethyl-2-(2-{2-[4-(4-{[trans-3-(3-chloro-4-cyanophenoxy)-2,2,4,4-tetramethylcyclobutyl]carbamoyl}phenoxy)butoxy]ethoxy}acetamido)butanoyl]-4-hydroxy-N-{[4-(1,3-thiazol-5-yl)phenyl]methyl}pyrrolidine-2-carboxamide]
Dmax (VCaP, highest percentage of Androgen Receptor degradation observed, VCaP cells (Table 32); read-out: VCaP Dmax (%)): > 71%
DC50 (concentration that caused 50% Androgen Receptor degradation, VCaP cells (Table 32); read-out: VCaP DC50): < 50 nM

DC50 [5]: < 50 nM
Dmax [6]: 51 to 70%
SMILES: Cc1ncsc1-c1ccc(CNC(=O)[C@@H]2C[C@@H](O)CN2C(=O)[C@H](C(C)C)N2Cc3ccccc3C2=O)c(N2CCN(CCCc3ccc(C(=O)N[C@H]4C(C)(C)[C@H](Oc5ccc(C#N)c(C(F)(F)F)c5)C4(C)C)cc3)CC2)c1 [Example 753, (2S,4R)-N-(2-(4-(3-(4-(((1r,3r)-3-(4-cyano-3-(trifluoromethyl)phenoxy)-2,2,4,4-tetramethylcyclobutyl)carbamoyl)phenyl)propyl)piperazin-1-yl)-4-(4-methylthiazol-5-yl)benzyl)-4-hydroxy-1-((S)-3-methyl-2-(1-oxoisoindolin-2-yl)butanoyl)pyrrolidine-2-carboxamide]

SMILES: Cc1ncsc1-c1ccc(CNC(=O)[C@@H]2C[C@@H](O)CN2C(=O)[C@@H](NC(=O)COC/C=C\COCCCCOc2ccc(N3C(=S)N(c4ccc(C#N)c(C(F)(F)F)c4)C(=O)C3(C)C)cc2)C(C)(C)C)cc1 [Example 325]
Dmax (VCaP, read-out: VCaP Dmax (%)): 26 to 50%
DC50 (read-out: VCaP DC50; VCaP cells; Table 34): < 50 nM

SMILES: Cc1ncsc1-c1ccc([C@H](C)NC(=O)[C@@H]2C[C@@H](O)CN2C(=O)[C@H](C(C)C)n2cc(Oc3cccc(OCCCCCOc4ccc(N5C(=S)N(c6ccc(C#N)c(C(F)(F)F)c6)C(=O)C5(C)C)cc4)c3)cn2)cc1 [Example 600, (2S,4R)-1-((S)-2-(4-(3-((5-(4-(3-(4-cyano-3-(trifluoromethyl)phenyl)-5,5-dimethyl-4-oxo-2-thioxoimidazolidin-1-yl)phenoxy)pentyl)oxy)phenoxy)-1H-pyrazol-1-yl)-3-methylbutanoyl)-4-hydroxy-N-((S)-1-(4-(4-methylthiazol-5-yl)phenyl)ethyl)pyrroli-dine-2-carboxamide]
Dmax (VCaP, read-out: VCaP Dmax (%)): 26 to 50%
DC50 [1]: > 501 nM

SMILES: CC(C)[C@H](NC(=O)COCCCOCCCCOc1ccc(N2C(=S)N(c3ccc(C#N)c(Cl)c3)C(=O)C2(C)C)cc1)C(=O)N1C[C@H](O)C[C@H]1C(=O)NCc1ccc(-c2cncs2)cc1 [Example 36]
Dmax (VCaP, read-out: VCaP Dmax (%)): 26 to 50%
DC50 (read-out: VCaP DC50; concentration that caused 50% Androgen Receptor degradation, VCaP cells): < 50 nM

SMILES: Cc1ncsc1-c1ccc(CNC(=O)[C@@H]2C[C@@H](O)CN2C(=O)[C@@H](NC(=O)COCCCCOc2ccc(-c3ccc(N4C(=S)N(c5ccc(C#N)c(Cl)c5)C(=O)C4(C)C)cc3)cc2)C(C)(C)C)cc1 [Example 112, (2S,4R)-1-[(2S)-2-{2-[4-(4-{4-[3-(3-chloro-4-cyanophenyl)-5,5-dimethyl-4-oxo-2-sulfanylideneimidazolidin-1-yl]phenyl}phen-oxy)butoxy]acetamido}-3,3-dimethylbutanoyl]-4-hydroxy-N-{[4-(4-methyl-1,3-thiazol-5-yl)phenyl]methyl}pyrrolidine-2-carboxamide]
Dmax (VCaP, read-out: VCaP Dmax (%)): > 71%
DC50 [4]: < 50 nM

DC50 [5]: < 50 nM
Dmax [6]: 51 to 70%
SMILES: Cc1nccn1-c1ccc([C@H](C)NC(=O)C2C[C@@H](O)CN2C(=O)C(NC(=O)COCC2CCN(c3ccc(C(=O)N[C@H]4C(C)(C)[C@H](Oc5ccc(C#N)c(Cl)c5)C4(C)C)cn3)CC2)C(C)(C)C)cc1 (stereo partly drawn) [Example 606, N-((1r,3r)-3-(3-chloro-4-cyanophenoxy)-2,2,4,4-tetramethylcyclobutyl)-6-(4-((2-(((S)-1-((2S,4R)-4-hydroxy-2-(((S)-1-(4-(2-methyl-1H-imidazol-1-yl)phenyl)ethyl)carbam-oyl)pyrrolidin-1-yl)-3,3-dimethyl-1-oxobutan-2-yl)amino)-2-oxoethoxy)methyl)piper-idin-1-yl)nicotinamide]

DC50 [5]: > 501 nM
Dmax [6]: < 25%
SMILES: CC(C)(C)[C@H](NC(=O)COCCN1CCN(c2ccc(C(=O)N[C@H]3C(C)(C)[C@H](Oc4ccc(C#N)c(Cl)c4)C3(C)C)cn2)CC1)C(=O)N1C[C@H](O)C[C@H]1C(=O)NCc1cc(F)ccc1F [Example 775, N-((1r,3r)-3-(3-chloro-4-cyanophenoxy)-2,2,4,4-tetramethylcyclobutyl)-6-(4-(2-(2-(((S)-1-((2S,4R)-2-((2,5-difluorobenzyl)carbamoyl)-4-hydroxypyrrolidin-1-yl)-3,3-dimethyl-1-oxobutan-2-yl)amino)-2-oxoethoxy)ethyl)piperazin-1-yl)nicotinamide]

DC50 [5]: > 501 nM
Dmax [6]: < 25%
SMILES: Cc1ncsc1-c1ccc([C@H](C)NC(=O)[C@@H]2C[C@@H](O)CN2C(=O)[C@@H](NC(=O)CN2CCN(CCCc3ccc(C(=O)N[C@H]4C(C)(C)[C@H](Oc5ccc(C#N)c(Cl)c5)C4(C)C)cc3)CC2)C2COC2)cc1 [Example 751, (2S,4R)-1-((S)-2-(2-(4-(3-(4-(((1r,3r)-3-(3-chloro-4-cyanophenoxy)-2,2,4,4-tetramethylcyclobutyl)carbamoyl)phenyl)propyl)piperazin-1-yl)acetamido)-2-(oxetan-3-yl)acetyl)-4-hydroxy-N-((S)-1-(4-(4-methylthiazol-5-yl)phenyl)ethyl)pyrrolidine-2-carboxamide]

DC50 [2]: < 50 nM
Dmax [3]: > 71%
SMILES: Cc1ncsc1-c1ccc([C@H](C)NC(=O)[C@@H]2C[C@@H](O)CN2C(=O)[C@@H](NC(=O)CNCCNc2ccc(-c3ccc(C(=O)N[C@H]4C(C)(C)[C@H](Oc5ccc(C#N)c(Cl)c5)C4(C)C)cc3)cn2)C(C)(C)C)cc1 [Example 483]

DC50 [2]: < 50 nM
Dmax [3]: > 71%
SMILES: CC(C)(C)[C@H](NC(=O)COCCCCCNc1ccc(C(=O)N[C@H]2C(C)(C)[C@H](Oc3ccc(C#N)c(Cl)c3)C2(C)C)cc1)C(=O)N1C[C@H](O)C[C@H]1C(=O)NCc1ccc(-c2scnc2C2CC2)cc1 [Example 555]

SMILES: Cc1ncsc1-c1ccc([C@H](C)NC(=O)[C@@H]2C[C@@H](O)CN2C(=O)[C@@H](NC(=O)COc2ccc(O[C@H]3CC[C@H](Oc4ccc(N5C(=S)N(c6ccc(C#N)c(C(F)(F)F)c6)C(=O)C5(C)C)cc4)CC3)nc2)C(C)(C)C)cc1 (racemic) [Example 421]
Dmax (VCaP, read-out: VCaP Dmax (%)): 26 to 50%
DC50 (read-out: VCaP DC50; VCaP cells; Table 35): 51 to 500 nM

Source: patent US11427548B2 (Arvinas Operations, Inc., priority 2015, dated 2022)
